Values quoted from earlier work, collected in patent US7833524B2 (priority 2005, dated 2010).

Target: LC/A (Clostridium botulinum, UniProt P0DPI0)
Sequence (P0DPI0 2-448 limits assumed): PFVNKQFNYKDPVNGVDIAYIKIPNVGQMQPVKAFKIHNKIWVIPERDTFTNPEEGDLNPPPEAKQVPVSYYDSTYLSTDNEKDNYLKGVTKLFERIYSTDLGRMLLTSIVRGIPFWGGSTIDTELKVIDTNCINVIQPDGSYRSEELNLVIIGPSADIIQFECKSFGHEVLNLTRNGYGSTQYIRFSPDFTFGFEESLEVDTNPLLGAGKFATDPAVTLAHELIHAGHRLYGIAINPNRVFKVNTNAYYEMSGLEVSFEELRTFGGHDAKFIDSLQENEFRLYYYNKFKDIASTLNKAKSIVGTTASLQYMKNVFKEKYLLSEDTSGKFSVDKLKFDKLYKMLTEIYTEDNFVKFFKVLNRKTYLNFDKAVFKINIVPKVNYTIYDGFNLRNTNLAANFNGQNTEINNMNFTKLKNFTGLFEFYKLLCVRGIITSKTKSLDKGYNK

| SMILES | Concentration range that inhibits LC/A |
| --- | --- |
| C[C@H](CS)C(=O)N1CCC[C@H]1C(=O)O [captopril] | mM concentrations |
| CCOC(=O)[C@H](CCc1ccccc1)N[C@@H](C)C(=O)N1CCC[C@H]1C(=O)O [enalapril] | mM concentrations |
